Experimental findings from patent US20020173468A1, “MODIFIED CYTOSTATIC AGENTS” (priority 1996, published 2002) are described below.

In series [1] the test system is B16F10 mouse melanoma cell line. Kind of series: Growth inhibition test (MTT) for cytotoxic properties, B16F10. It counts as cell-based. The conditions noted are these: B16F10 cells. The method, then:
(§1) 1. Growth Inhibition Test for the Determination of Cytotoxic Properties
(§2) They were then trypsinized and taken up in RPMI plus 10% FCS to give a cell count of 50,000 cells/ml. 100 μl of cell suspension/well were added to a 96 microwell plate and incubated for 1 day at 37° C. in a CO2 incubator. A further 100 μl of RPMI medium and 1 μl of DMSO were then added with the test substances. The growth was checked after day 3 and day 6. To do this, 40 μl of MTT solution (3-(4,5-dimethylthiazol-2-yl)-2,5-diphenyl-tetrazolin bromide) were added to each microwell at a starting concentration of 5 mg/ml of H2O. Incubation was carried out at 37° C. for 5 hours in the CO2 incubator. The medium was then aspirated and 100 μl of i-propanol/well were added. After shaking for 30 min with 100 μl of H2O, the extinction was measured at 540 nm using a Titertek Multiskan MCC/340 (flow).
(§3) The cytotoxic action is indicated in Table 1 as an IC50 value in each case for the SW 480 and HT 29 and B16F10 cell lines: […]

For series [2], the system named is mouse bone marrow stem cells. Nature of the series: Inhibition of the CSF-induced proliferation of mouse bone marrow stem cells (colony formation). It counts as cell-based. To be noted: recombinant murine GM-CSF, 7 days. On the procedure: 2. Haematopoietic Activity of Conjugates in Comparison with the Basic Active Compound
Bone marrow cells were rinsed from mouse femurs. 10^5 cells were incubated in McCoy 5A medium (0.3% agar) together with recombinant murine GM-CSF (Genzyme; stem cell colony formation) and the substances (10^−4 to 100 μg/ml) at 37° C. and 7% CO2. 7 days later, the colonies ([…]50 cells) and clusters (17-50 cells) were counted.

Series [3] deals with HT 29 human colonic tumour cell line. Kind of series: Growth inhibition test (MTT) for cytotoxic properties, HT 29. Type of series: cell-based. The conditions noted are these: HT 29 cells. On the procedure: as §1, §2, §3
For series [4], the system named is SW 480 human colonic tumour cell line. Kind of series: Growth inhibition test (MTT) for cytotoxic properties, SW 480. Type of series: cell-based. The conditions noted are these: SW 480 cells. On the procedure: as §1, §2, §3
Series [5] relates to large-cell human lung tumour xenograft LXFL 529. Nature of the series: In-vivo inhibition of tumour growth in the nude mouse model. Also noted: species or system athymic nude mice (NMRI nu/nu strain). The conditions noted are these: for Relative tumour volume on day 21: control 1137; for Survival time: individual animals. From the text: 3. In-vivo Inhibition of Tumour Growth in the Nude Mouse Model
For all in-vivo experiments for investigation of the inhibition of tumour growth, athymic nude mice (NMRI nu/nu strain) were used. The selected large-cell lung carcinoma LXFL 529 was developed by serial passage in nude mice. The human origin of the tumour was confirmed by isoenzymatic and immunohistochemical methods.
The tumour was implanted subcutaneously in both flanks of nu/nu nude mice 6 to 8 weeks old. The treatment was started, depending on the doubling time, as soon as the tumours had reached a diameter of 5-7 mm. The mice were assigned to the treatment group and to the control group (5 mice per group with 8-10 assessable tumours) by randomization. The individual tumours of the control group all grew progressively.
The size of the tumours was measured in two dimensions by means of a slide gauge. The tumour volume, which correlated well with the cell count, was then used for all evaluations. The volume was calculated according to the formula “length×breadth×breadth/2” ([a×b^2]/2, a and b represent two diameters arranged at right angles).
The values of the relative tumour volume (RTV) were calculated for each individual tumour by dividing the tumour size on day X by the tumour size on day 0 (at the time of randomization). The mean values of the RTV were then used for further evaluation.
The inhibition of the increase in the tumour volume (tumour volume of the test group/control group, T/C, in per cent) was the final measured value.
The administration of the compounds was carried out intraperitoneally (i.p.) on days 1, 2 and 3 after randomization.

[6] abbreviates: 6.25 mg/kg/day (MTD) i.p. days 1-3.

“And” between values parts separate entries of the source, which are not always exact repeats. Equal values may be shown once. A value given as a limit tells only on which side of the number the result lay.

Consider `CC[C@@]1(OC(=O)[C@@H](NC(=O)[C@H](CCCCN)NC(=S)Nc2ccc(O)cc2)C(C)C)C(=O)OCc2c1cc1n(c2=O)Cc2cc3ccccc3nc2-1.Cl` [Example 4.4), 20-O-[N^α-(4-Hydroxy-phenylamino-thiocarbonyl)-lysyl-valyl]-camptothecin, hydrochloride], for which the figures for the IC50 in series [1], in series [3] and in series [4] were 0.6 µM, 0.2 µM and 0.3 µM, respectively. In addition, in series [2], the “IC50, inhibition of the CSF-induced proliferation of mouse bone marrow stem cells” value came to 0.01 µg/mL. For the same compound, the “Relative body weight on day 21” value in series [5] (3.125 mg/kg/day i.p. days 1-3) was 105.8 % of day 0; in series [5] (setting [6]) it was 113.0 % of day 0. For the same compound, the “Relative tumour volume on day 21” value is 69.5 % of day 0 in series [5] (3.125 mg/kg/day i.p. days 1-3) and 0.2 % of day 0 in series [5] (setting [6]). Moreover, the Survival time was >43 >43 days in series [5] (3.125 mg/kg/day i.p. days 1-3); 7 days and > 43 days and >43 >43 days in series [5] (6.25 mg/kg/day (MTD) i.p. days 1-3, hydrochloride). Also, the “Maximum tolerable dose (MTD)” value in series [5] (i.p. on days 1, 2 and 3, nude mice) amounted to 6.25 mg/kg/day. In series [5] (therapy at the MTD and at half the MTD), the “Therapeutic efficacy against LXFL 529 xenograft (in words)” value is on record as “tumour remission”.
